Source: publication PMC7891601 (Clinical Pharmacology and Therapeutics, 2020)
Read-outs that look alike come from different tables or passages of the source.

Key:
[1] = format: in vivo, human; conditions: for impact of metformin administration on CLr: control vs baseline; for AUC / CLr: adjusted geometric mean; for AUC: AUC0–24; for CLr: 0–24 h; for mean plasma concentration (Cav): mean ± SEM
MATE1/2‐K = assay: Nonlinear regression of CLr ratio vs pyrimethamine plasma concentration; format: in vivo, human; conditions: regression against pyrimethamine Cav
OAT1 = molecular target: T1, OAT1 (Homo sapiens, UniProt Q4U2R8); assay: Inhibition of PAH uptake in OAT1-expressing HEK293 cells; format: cell-based
T1 sequence (Q4U2R8 1-563): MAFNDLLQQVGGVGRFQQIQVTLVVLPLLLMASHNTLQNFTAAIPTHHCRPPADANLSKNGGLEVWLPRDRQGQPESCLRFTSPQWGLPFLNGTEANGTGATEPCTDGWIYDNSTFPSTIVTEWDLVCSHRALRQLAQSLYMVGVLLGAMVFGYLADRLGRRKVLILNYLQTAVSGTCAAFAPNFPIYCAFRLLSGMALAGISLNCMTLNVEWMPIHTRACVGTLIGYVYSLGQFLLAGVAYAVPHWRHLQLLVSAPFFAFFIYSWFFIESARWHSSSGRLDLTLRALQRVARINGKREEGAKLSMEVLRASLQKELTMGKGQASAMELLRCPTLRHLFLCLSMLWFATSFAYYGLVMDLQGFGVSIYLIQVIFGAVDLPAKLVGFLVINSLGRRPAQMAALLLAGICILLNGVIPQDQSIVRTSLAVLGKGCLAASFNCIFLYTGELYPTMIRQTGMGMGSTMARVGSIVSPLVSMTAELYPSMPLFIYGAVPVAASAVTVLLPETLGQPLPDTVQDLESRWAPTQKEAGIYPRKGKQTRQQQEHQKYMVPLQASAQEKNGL

[2] = in humans; cited from earlier work
MATE1 [3] = conditions: read-out: Ki for MATE1‐mediated creatinine uptake; cited from earlier work
OAT2 = conditions: read-out: half‐maximal inhibitory concentration, OAT2; cited from earlier work
[4] = molecular target: T2, SLC29A1/equilibrative nucleoside transporter 1 (Homo sapiens, UniProt Q99808); assay: Uptake of m1A in HEK293 cells with and without inhibitors; format: cell-based; conditions: m1A 100 μM, HEK293, 15 min, inhibitor 10 μM
T2 sequence (Q99808 2-456): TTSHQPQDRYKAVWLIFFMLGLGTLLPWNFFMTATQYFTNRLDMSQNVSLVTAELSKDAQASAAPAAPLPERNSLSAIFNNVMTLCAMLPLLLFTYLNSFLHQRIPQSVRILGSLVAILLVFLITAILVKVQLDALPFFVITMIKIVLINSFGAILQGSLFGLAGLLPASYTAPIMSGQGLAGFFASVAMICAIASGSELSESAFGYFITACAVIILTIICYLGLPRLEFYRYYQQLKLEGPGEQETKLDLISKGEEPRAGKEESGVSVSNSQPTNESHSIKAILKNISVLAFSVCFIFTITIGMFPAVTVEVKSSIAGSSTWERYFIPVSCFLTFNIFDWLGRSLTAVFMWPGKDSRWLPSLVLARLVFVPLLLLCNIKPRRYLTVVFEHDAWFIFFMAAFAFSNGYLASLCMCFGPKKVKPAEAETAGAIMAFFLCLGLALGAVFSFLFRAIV

OAT3 = molecular target: T3, OAT3 (Homo sapiens, UniProt Q8TCC7); assay: Inhibition of ES uptake in OAT3-expressing HEK293 cells; format: cell-based
T3 sequence (Q8TCC7 1-542): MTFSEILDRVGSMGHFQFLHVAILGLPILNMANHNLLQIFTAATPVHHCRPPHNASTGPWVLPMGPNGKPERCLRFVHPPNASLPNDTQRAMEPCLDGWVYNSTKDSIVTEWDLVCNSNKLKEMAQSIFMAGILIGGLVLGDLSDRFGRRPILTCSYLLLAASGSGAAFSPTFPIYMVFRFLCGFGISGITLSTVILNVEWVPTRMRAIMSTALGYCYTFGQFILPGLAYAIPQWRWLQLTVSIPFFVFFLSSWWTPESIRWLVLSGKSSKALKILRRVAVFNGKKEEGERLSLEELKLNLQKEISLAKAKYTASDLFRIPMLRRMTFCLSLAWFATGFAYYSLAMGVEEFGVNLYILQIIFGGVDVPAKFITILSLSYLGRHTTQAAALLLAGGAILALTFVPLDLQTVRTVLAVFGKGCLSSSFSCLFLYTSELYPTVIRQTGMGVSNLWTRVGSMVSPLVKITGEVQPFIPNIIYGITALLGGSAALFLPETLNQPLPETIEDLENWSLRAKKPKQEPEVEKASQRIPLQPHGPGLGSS

MATE2‐K [5] = molecular target: MATE2‐K (Homo sapiens, UniProt Q86VL8); format: cell-based; conditions: In vitro Ki of pyrimethamine, HEK293
MATE2‐K (Homo sapiens, UniProt Q86VL8), sequence (Q86VL8 1-566 isoform Q86VL8-3): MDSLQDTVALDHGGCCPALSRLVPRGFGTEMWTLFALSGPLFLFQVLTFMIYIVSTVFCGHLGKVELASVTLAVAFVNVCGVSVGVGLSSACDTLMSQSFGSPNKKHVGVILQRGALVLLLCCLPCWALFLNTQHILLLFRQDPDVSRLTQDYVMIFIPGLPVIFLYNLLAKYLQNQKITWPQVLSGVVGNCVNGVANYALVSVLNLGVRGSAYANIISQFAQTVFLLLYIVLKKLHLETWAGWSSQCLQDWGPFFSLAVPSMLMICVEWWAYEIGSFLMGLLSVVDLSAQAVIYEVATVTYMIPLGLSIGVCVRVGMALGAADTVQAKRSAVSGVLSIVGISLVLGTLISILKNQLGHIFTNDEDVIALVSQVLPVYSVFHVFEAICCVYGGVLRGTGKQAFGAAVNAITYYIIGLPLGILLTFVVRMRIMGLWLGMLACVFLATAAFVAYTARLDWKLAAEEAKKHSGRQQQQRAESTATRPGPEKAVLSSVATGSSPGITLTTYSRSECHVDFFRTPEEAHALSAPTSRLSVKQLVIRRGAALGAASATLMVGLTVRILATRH

MATE1 [6] = molecular target: T4, MATE1 (Homo sapiens, UniProt Q96FL8); format: cell-based; conditions: In vitro Ki of pyrimethamine, 2 min, HEK293
T4 sequence (Q96FL8 1-570): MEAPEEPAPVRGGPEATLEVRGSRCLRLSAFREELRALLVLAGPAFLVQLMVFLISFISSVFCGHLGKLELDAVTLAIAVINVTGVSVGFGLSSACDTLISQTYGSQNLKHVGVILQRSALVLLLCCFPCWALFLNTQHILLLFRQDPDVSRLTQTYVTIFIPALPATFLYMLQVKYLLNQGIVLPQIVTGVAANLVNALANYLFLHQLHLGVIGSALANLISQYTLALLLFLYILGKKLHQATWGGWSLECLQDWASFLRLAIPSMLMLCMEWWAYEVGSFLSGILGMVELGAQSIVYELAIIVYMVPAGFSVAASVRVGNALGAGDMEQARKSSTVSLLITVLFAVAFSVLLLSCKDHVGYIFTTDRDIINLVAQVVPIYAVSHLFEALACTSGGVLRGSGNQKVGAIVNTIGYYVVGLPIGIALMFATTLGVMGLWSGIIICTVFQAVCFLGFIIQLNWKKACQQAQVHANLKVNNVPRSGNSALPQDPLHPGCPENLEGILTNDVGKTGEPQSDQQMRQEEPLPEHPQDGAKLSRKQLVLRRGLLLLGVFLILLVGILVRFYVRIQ

OCT2 = molecular target: T5, OCT2 (Homo sapiens, UniProt O15244); format: cell-based; conditions: In vitro Ki of pyrimethamine, HEK293
T5 sequence (O15244 1-555): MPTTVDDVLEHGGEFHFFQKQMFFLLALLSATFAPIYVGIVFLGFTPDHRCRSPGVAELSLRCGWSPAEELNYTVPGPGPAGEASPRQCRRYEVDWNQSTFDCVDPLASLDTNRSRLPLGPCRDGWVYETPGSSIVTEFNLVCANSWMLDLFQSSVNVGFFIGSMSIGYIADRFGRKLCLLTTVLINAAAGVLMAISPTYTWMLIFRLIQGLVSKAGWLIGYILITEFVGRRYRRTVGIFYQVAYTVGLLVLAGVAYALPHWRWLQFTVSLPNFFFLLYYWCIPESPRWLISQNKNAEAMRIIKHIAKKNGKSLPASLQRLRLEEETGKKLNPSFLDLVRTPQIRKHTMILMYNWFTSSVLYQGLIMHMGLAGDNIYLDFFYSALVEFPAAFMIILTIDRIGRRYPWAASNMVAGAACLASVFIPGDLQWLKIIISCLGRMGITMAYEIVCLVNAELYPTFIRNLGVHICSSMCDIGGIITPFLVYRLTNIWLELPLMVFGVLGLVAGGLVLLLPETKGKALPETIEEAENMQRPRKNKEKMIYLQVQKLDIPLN

MATE2‐K [7] = conditions: read-out: Ki for MATE2‐K‐mediated creatinine uptake; cited from earlier work
[8] = pyrimethamine 75 mg + metformin
[9] = control phase (metformin 500 mg alone)
[10] = pyrimethamine 10 mg + metformin
[11] = pyrimethamine 25 mg + metformin

For CN1CC(=O)NC1=N [Creatinine, creatinine], the “impact of metformin administration on CLr” value [1] was < 7% and the “f PYR (contribution of tubular secretion to urinary excretion)” value (MATE1/2‐K) was 26%.

In the case of CN(C)C(=N)N=C(N)N [Metformin, metformin], the “decrease in CLr by pyrimethamine” value ([1]; pyrimethamine 10 mg vs control) is reported as 12%, the “decrease in CLr by pyrimethamine” value ([1]; pyrimethamine 25 mg vs control) is reported as 34% and the “increase in AUC by pyrimethamine” value ([1]; pyrimethamine 25 mg vs control) is reported as 24%. For the same molecule, the AUC [1, 8] was 122900 nM·h, the “decrease in CLr by pyrimethamine” value ([1]; pyrimethamine 75 mg vs control) was 55% and the “increase in AUC by pyrimethamine” value ([1]; pyrimethamine 75 mg vs control) was 69%.

With Cc1ncc(CO)c(C(=O)O)c1O [PDA, pyridoxic acid] the CLr [1, 9] was 545.1 mL/min, the AUC [1, 9] was 291.2 nM·h and the CLr [1, 10] was 584.6 mL/min. For the same molecule, the AUC [1, 10] was 214.2 nM·h, the CLr [1, 11] was 603.1 mL/min and the AUC [1, 11] was 177.2 nM·h. For the same molecule, the CLr [1, 8] was 423.7 mL/min, the AUC [1, 8] was 164.7 nM·h and the “decrease in CLr by pyrimethamine” value ([1]; pyrimethamine 75 mg vs control) was 22%.

For Cn1cnc2c(ncn2[C@@H]2O[C@H](CO)[C@@H](O)[C@H]2O)c1=N [m^1A, N ^1‐methyladenosine], the “contribution of the tubular secretion” value ([1]; assumed from CLr vs creatinine clearance at 75 mg) was 41%, the “CLr relative to creatinine clearance” value ([1]; control conditions, vs corresponding creatinine clearance) was 1.3 fold and the “impact of metformin administration on CLr” value [1] was < 7%.

For CCc1nc(N)nc(N)c1-c1ccc(Cl)cc1 [pyrimethamine], the IC50 (OAT1) is given as 241 ± 55 µM, the “elimination half‐life” value [2] is given as “ca. 100 hours” and the “mean plasma concentration (Cav)” value ([1]; 10 mg single oral dose) is given as 0.287 ± 0.024 µM. For the same molecule, the “mean plasma concentration (Cav)” value ([1]; 25 mg single oral dose) was 0.781 ± 0.031 µM, the “mean plasma concentration (Cav)” value ([1]; 75 mg single oral dose) was 2.47 ± 0.18 µM and the Ki (MATE1 [3]) was 0.17 µM. The IC50 (OAT2) was > 100 µM, the “effect of inhibitor on uptake of m1A (ENT1)” value [4] was “minimal” and the IC50 (OAT3) was 9.69 ± 2.27 µM. It also gave a Ki (MATE2‐K [5]; substrate 1‐NMN 10 μM, 2 min) of 0.0821 ± 0.018 µM, a Ki (MATE2‐K [5]; substrate m1A 100 μM, 30 min) of 0.068 ± 0.015 µM and a Ki (MATE2‐K [5]; substrate metformin 10 μM, 2 min) of 0.0941 ± 0.016 µM. It also gave a Ki (MATE1 [6]; MATE1, substrate 1‐NMN 10 μM) of 0.125 ± 0.026 µM, a Ki (MATE1 [6]; MATE1, substrate metformin 10 μM) of 0.154 ± 0.029 µM and a Ki (OCT2; OCT2, substrate 1‐NMN 10 μM, 2 min) of 41.2 ± 9.1 µM. For the same molecule, the Ki (OCT2; OCT2, substrate m1A 100 μM, 30 min) was 0.466 ± 0.043 µM, the Ki (OCT2; OCT2, substrate metformin 10 μM, 2 min) was 37.9 ± 5.6 µM and the Ki (MATE2‐K [7]) was 0.22 µM.
